Reference: patent publication US20100267561A1, “HERBICIDAL PYRIDAZINONE DERIVATIVES” (priority 2007, published 2010)

Assays:
Experiment in all cases: Test E pre-/postemergence plant response
Type in all cases: in vivo
Settings in all cases: scale 0 to 100
[1] = system: common groundsel (Senecio vulgaris)
In short: (§1)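 In this greenhouse assay, sown seeds received preemergence treatment and young plants of 2 to 18 cm (1- to 4-leaf stage) received postemergence treatment, both with compound in a non-phytotoxic solvent and surfactant vehicle. Effects were rated visually 14 to 21 days later on a 0–100 control scale.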

[2] = system: common mallow (Malva sylvestris)
In short: as §1

[3] = system: annual bluegrass (Poa annua)
In short: as §1

[4] = system: large crabgrass (Digitaria sanguinalis)
In short: as §1

[5] = system: green foxtail (Setaria viridis)
In short: as §1

[6] = system: Italian ryegrass (Lolium multiflorum)
In short: as §1

[7] = system: johnsongrass (Sorghum halepense)
In short: as §1

[8] = system: purple nutsedge (Cyperus rotundus)
In short: as §1

[9] = system: pitted morningglory (Ipomoea lacunosa)
In short: as §1

[10] = system: surinam grass (Brachiaria decumbens)
In short: as §1

[11] = system: itchgrass (Rottboellia cochinchinensis)
In short: as §1

[12] = system: common purslane (Portulaca oleracea)
In short: as §1

[13] = system: dallisgrass (Paspalum dilatatum)
In short: as §1

[14] = system: barnyardgrass (Echinochloa crus-galli)
In short: as §1

[15] = system: naked crabgrass (Digitaria nuda)
In short: as §1

[16] = system: black mustard (Brassica nigra)
In short: as §1

[17] = system: broadleaf signalgrass (Brachiaria platyphylla)
In short: as §1

CCCc1cc(-c2ccc(Cl)cc2)nn1-c1c(O)cnn(C)c1=O [Compound 43]
Plant response rating, Groundsel ([1]; 16 g ai/ha, Preemergence): 0 | Plant response rating, Groundsel ([1]; 31 g ai/ha, Preemergence): 0 | Plant response rating, Groundsel ([1]; 62 g ai/ha, Preemergence): 0 | Plant response rating, Groundsel ([1]; Postemergence, 8 g ai/ha): 0 | Plant response rating, Groundsel ([1]; Postemergence, 16 g ai/ha): 0 | Plant response rating, Groundsel ([1]; Postemergence, 31 g ai/ha): 0 | Plant response rating, Groundsel ([1]; Postemergence, 62 g ai/ha): 0 | Plant response rating, Mallow ([2]; 16 g ai/ha, Preemergence): 0 | Plant response rating, Mallow ([2]; 31 g ai/ha, Preemergence): 0 | Plant response rating, Mallow ([2]; 62 g ai/ha, Preemergence): 0 | Plant response rating, Mallow ([2]; Postemergence, 8 g ai/ha): 0 | Plant response rating, Mallow ([2]; Postemergence, 16 g ai/ha): 0 | Plant response rating, Mallow ([2]; Postemergence, 31 g ai/ha): 0 | Plant response rating, Mallow ([2]; Postemergence, 62 g ai/ha): 0 | Plant response rating, Bluegrass ([3]; 16 g ai/ha, Preemergence): 0 | Plant response rating, Bluegrass ([3]; 31 g ai/ha, Preemergence): 0 | Plant response rating, Bluegrass ([3]; 62 g ai/ha, Preemergence): 0 | Plant response rating, Bluegrass ([3]; Postemergence, 8 g ai/ha): 0 | Plant response rating, Bluegrass ([3]; Postemergence, 16 g ai/ha): 0 | Plant response rating, Bluegrass ([3]; Postemergence, 31 g ai/ha): 0 | Plant response rating, Bluegrass ([3]; Postemergence, 62 g ai/ha): 0 | Plant response rating, Crabgrass, Large ([4]; 16 g ai/ha, Preemergence): 0 | Plant response rating, Crabgrass, Large ([4]; 31 g ai/ha, Preemergence): 70 | Plant response rating, Crabgrass, Large ([4]; 62 g ai/ha, Preemergence): 80 | Plant response rating, Crabgrass, Large ([4]; Postemergence, 8 g ai/ha): 30 | Plant response rating, Crabgrass, Large ([4]; Postemergence, 16 g ai/ha): 60 | Plant response rating, Crabgrass, Large ([4]; Postemergence, 31 g ai/ha): 80 | Plant response rating, Crabgrass, Large ([4]; Postemergence, 62 g ai/ha): 80 | Plant response rating, Foxtail, Green ([5]; 16 g ai/ha, Preemergence): 25 | Plant response rating, Foxtail, Green ([5]; 31 g ai/ha, Preemergence): 85 | Plant response rating, Foxtail, Green ([5]; 62 g ai/ha, Preemergence): 100 | Plant response rating, Foxtail, Green ([5]; Postemergence, 8 g ai/ha): 75 | Plant response rating, Foxtail, Green ([5]; Postemergence, 16 g ai/ha): 80 | Plant response rating, Foxtail, Green ([5]; Postemergence, 31 g ai/ha): 80 | Plant response rating, Foxtail, Green ([5]; Postemergence, 62 g ai/ha): 98 | Plant response rating, Ryegrass, Italian ([6]; 16 g ai/ha, Preemergence): 90 | Plant response rating, Ryegrass, Italian ([6]; 31 g ai/ha, Preemergence): 90 | Plant response rating, Ryegrass, Italian ([6]; 62 g ai/ha, Preemergence): 90 | Plant response rating, Ryegrass, Italian ([6]; Postemergence, 8 g ai/ha): 50 | Plant response rating, Ryegrass, Italian ([6]; Postemergence, 16 g ai/ha): 80 | Plant response rating, Ryegrass, Italian ([6]; Postemergence, 31 g ai/ha): 100 | Plant response rating, Ryegrass, Italian ([6]; Postemergence, 62 g ai/ha): 100 | Plant response rating, Johnsongrass ([7]; 16 g ai/ha, Preemergence): 0 | Plant response rating, Johnsongrass ([7]; 31 g ai/ha, Preemergence): 50 | Plant response rating, Johnsongrass ([7]; 62 g ai/ha, Preemergence): 60 | Plant response rating, Johnsongrass ([7]; Postemergence, 8 g ai/ha): 15 | Plant response rating, Johnsongrass ([7]; Postemergence, 16 g ai/ha): 25 | Plant response rating, Johnsongrass ([7]; Postemergence, 31 g ai/ha): 65 | Plant response rating, Nutsedge, Purple ([8]; 16 g ai/ha, Preemergence): 0 | Plant response rating, Nutsedge, Purple ([8]; 31 g ai/ha, Preemergence): 0 | Plant response rating, Nutsedge, Purple ([8]; 62 g ai/ha, Preemergence): 75 | Plant response rating, Nutsedge, Purple ([8]; Postemergence, 8 g ai/ha): 0 | Plant response rating, Nutsedge, Purple ([8]; Postemergence, 16 g ai/ha): 0 | Plant response rating, Nutsedge, Purple ([8]; Postemergence, 31 g ai/ha): 0 | Plant response rating, Nutsedge, Purple ([8]; Postemergence, 62 g ai/ha): 0 | Plant response rating, Morningglory ([9]; 16 g ai/ha, Preemergence): 0 | Plant response rating, Morningglory ([9]; 31 g ai/ha, Preemergence): 20 | Plant response rating, Morningglory ([9]; 62 g ai/ha, Preemergence): 30 | Plant response rating, Morningglory ([9]; Postemergence, 8 g ai/ha): 0 | Plant response rating, Morningglory ([9]; Postemergence, 16 g ai/ha): 0 | Plant response rating, Morningglory ([9]; Postemergence, 31 g ai/ha): 0 | Plant response rating, Morningglory ([9]; Postemergence, 62 g ai/ha): 0 | Plant response rating, Surinam Grass ([10]; 16 g ai/ha, Preemergence): 50 | Plant response rating, Surinam Grass ([10]; 31 g ai/ha, Preemergence): 70 | Plant response rating, Surinam Grass ([10]; 62 g ai/ha, Preemergence): 100 | Plant response rating, Surinam Grass ([10]; Postemergence, 8 g ai/ha): 95 | Plant response rating, Surinam Grass ([10]; Postemergence, 16 g ai/ha): 98 | Plant response rating, Surinam Grass ([10]; Postemergence, 31 g ai/ha): 98 | Plant response rating, Surinam Grass ([10]; Postemergence, 62 g ai/ha): 98 | Plant response rating, Itchgrass ([11]; 16 g ai/ha, Preemergence): 35 | Plant response rating, Itchgrass ([11]; 31 g ai/ha, Preemergence): 50 | Plant response rating, Itchgrass ([11]; 62 g ai/ha, Preemergence): 85 | Plant response rating, Itchgrass ([11]; Postemergence, 8 g ai/ha): 20 | Plant response rating, Itchgrass ([11]; Postemergence, 31 g ai/ha): 20 | Plant response rating, Itchgrass ([11]; Postemergence, 62 g ai/ha): 75 | Plant response rating, Purslane ([12]; 16 g ai/ha, Preemergence): 0 | Plant response rating, Purslane ([12]; 31 g ai/ha, Preemergence): 0 | Plant response rating, Purslane ([12]; 62 g ai/ha, Preemergence): 0 | Plant response rating, Purslane ([12]; Postemergence, 8 g ai/ha): 0 | Plant response rating, Purslane ([12]; Postemergence, 16 g ai/ha): 0 | Plant response rating, Purslane ([12]; Postemergence, 62 g ai/ha): 0 | Plant response rating, Dallisgrass ([13]; 16 g ai/ha, Preemergence): 40 | Plant response rating, Dallisgrass ([13]; 31 g ai/ha, Preemergence): 80 | Plant response rating, Dallisgrass ([13]; 62 g ai/ha, Preemergence): 90 | Plant response rating, Dallisgrass ([13]; Postemergence, 8 g ai/ha): 0 | Plant response rating, Dallisgrass ([13]; Postemergence, 31 g ai/ha): 20 | Plant response rating, Dallisgrass ([13]; Postemergence, 62 g ai/ha): 50 | Plant response rating, Barnyardgrass ([14]; 16 g ai/ha, Preemergence): 50 | Plant response rating, Barnyardgrass ([14]; 31 g ai/ha, Preemergence): 100 | Plant response rating, Barnyardgrass ([14]; 62 g ai/ha, Preemergence): 100 | Plant response rating, Barnyardgrass ([14]; Postemergence, 8 g ai/ha): 100 | Plant response rating, Barnyardgrass ([14]; Postemergence, 16 g ai/ha): 100 | Plant response rating, Barnyardgrass ([14]; Postemergence, 31 g ai/ha): 100 | Plant response rating, Barnyardgrass ([14]; Postemergence, 62 g ai/ha): 100 | Plant response rating, Crabgrass, Naked ([15]; 16 g ai/ha, Preemergence): 35 | Plant response rating, Crabgrass, Naked ([15]; 31 g ai/ha, Preemergence): 35 | Plant response rating, Crabgrass, Naked ([15]; 62 g ai/ha, Preemergence): 75 | Plant response rating, Crabgrass, Naked ([15]; Postemergence, 8 g ai/ha): 65 | Plant response rating, Crabgrass, Naked ([15]; Postemergence, 16 g ai/ha): 65 | Plant response rating, Crabgrass, Naked ([15]; Postemergence, 62 g ai/ha): 100 | Plant response rating, Mustard, Black ([16]; 16 g ai/ha, Preemergence): 0 | Plant response rating, Mustard, Black ([16]; 31 g ai/ha, Preemergence): 0 | Plant response rating, Mustard, Black ([16]; 62 g ai/ha, Preemergence): 0 | Plant response rating, Mustard, Black ([16]; Postemergence, 8 g ai/ha): 0 | Plant response rating, Mustard, Black ([16]; Postemergence, 16 g ai/ha): 0 | Plant response rating, Mustard, Black ([16]; Postemergence, 31 g ai/ha): 0 | Plant response rating, Mustard, Black ([16]; Postemergence, 62 g ai/ha): 0 | Plant response rating, Signalgrass ([17]; 16 g ai/ha, Preemergence): 60 | Plant response rating, Signalgrass ([17]; 31 g ai/ha, Preemergence): 100 | Plant response rating, Signalgrass ([17]; Postemergence, 8 g ai/ha): 80 | Plant response rating, Signalgrass ([17]; Postemergence, 16 g ai/ha): 80 | Plant response rating, Signalgrass ([17]; Postemergence, 31 g ai/ha): 95 | Plant response rating, Signalgrass ([17]; Postemergence, 62 g ai/ha): 98
